Experimental data reported in US11366090B2, “Method for the inactivation and inactivation testing of xeno antigens in foods of animal origin, particularly for milk and derivatives, and in foods of plant origin, particularly for milk substitutes based on soy and/or rice” (Biocompatibility Innovation S.R.L., priority 2016, dated 2022).

Experiments:
alpha-Gal epitope [1] = assay: inactivation test of alpha-Gal epitopes in samples of milk substitutes based on rice and soya (M86 antibody incubation, centrifugation, alpha-Gal/HSA ELISA); format: biochemical; conditions: milk substitute based on rice and soya, caffeic acid 0.3% w/v (method: 0.5±0.05% w/v), ambient temperature
Procedure: Three solutions are made up, using a milk substitute based on rice and soya as solvent, for example a substitute comprising 17% rice, 17% soy seeds, in a total volume of 50 ml. In the present example, which is non-limiting of the invention, extracts of “Lippia citriodora” are used, titrated at 93% verbascoside. […] These solutions are left to act under moderate but constant stirring, for a total of 3±0.1 hours at 25±5° C. Samples are taken at 30±2 minutes, 1±0.1 hour and 3±0.1 hours. An aliquot of milk is taken from each sampling, comprised between 200 and 500 ul, and preferably a dose of 300 ul, to which a buffer is added, Na3C6H5O7 at pH 7.0±0.5, until a final volume is reached comprised between 1000 and 1500 ul, and preferably a final volume of 1500 ul. Then a murine antibody, directed against the alpha-Gal epitope, is added, for example an IgM clone called M86, at the preferable concentration of [1:50] w/v and the whole is incubated for 120±10 minutes at 37±2° C. under constant but moderate stirring. At the end the samples are subjected to centrifugation at 10,000×g for 30±2 minutes at 4±2° C. During incubation with the M86 antibody, a plate with 96 wells is prepared with 100 ul per well of alpha-Gal/HSA (Human Serum Albumin) at 5 ug/ml in a PBS buffer (pH 7.0±0.5). The plate thus prepared is incubated for 60±10 minutes at a temperature comprised between 30° C.-40° C., although it is preferable to stabilize everything at 37±2.0° C. Then 3 washes are carried out with 300 ul per well of PBS (physiological pH) at ambient temperature. The first wash is left to act for 5 minutes, the two subsequent washes for 3 minutes each. […] Then 50 ul per well of the stop solution is added, which is constituted by H2SO4 2M and the plate is then read in a plate reader at the wavelength of 450 nm. The test of inactivation is based on the comparison between the absorbance values of column number 1 which constitutes the blank value (100% of antibody available) and the respective columns of the samples. […]

alpha-Gal epitope [2] = assay: inactivation test of alpha-Gal epitopes in samples of cow's milk (M86 antibody incubation, centrifugation, alpha-Gal/HSA ELISA); format: biochemical; conditions: 0.5% w/v, ambient temperature
Procedure: incubating samples of milk with the addition of an antibody aimed at the alpha-Gal epitope that is present in the milk; in such embodiment, the antibody is for example a murine monoclonal antibody M86; it should be understood that all mono- or polyclonal antibodies and/or antibodies belonging to different isotypes, which have shown a proven specificity against the antigen in question, can be used; in general, the anti-xenoantigen antibody is an antibody specifically aimed at the alpha-Gal epitope;
separating, by way of centrifugation, the resulting immune complex created owing to the bond between antigen and antibody;
preparing a plate with 96 wells for the E.L.I.S.A. text with coating comprising the xenoantigen epitope, i.e. an alpha-Gal/human serum albumin coating;
adding, in the wells, supernatant taken from the milk samples subjected to centrifuge; the supernatant contains the part of anti-alpha-Gal antibody that has not bonded with epitopes; as is known, a column of wells is adapted to define a reference value, known in the jargon as ‘blank value’, that corresponds to the maximum signal between antibody and epitopes,
completing the plate with a secondary antibody conjugated with an enzyme, or other molecule for qualitative or quantitative evaluation through colorimetric assay, adapted to chromatically highlight the presence if any of the anti-alpha-Gal antibody; in the present embodiment, the secondary antibody is constituted by a rabbit polyclonal anti-mouse antibody, conjugated with the peroxidase enzyme, or with other types, enzymatic or otherwise, capable of providing qualitative or quantitative indications through colorimetric assay;
reading the plate, determining the presence of anti-alpha-Gal antibody that has remained free in the solutions of the samples;
comparing the absorbance values detected in the column that defines the reference values with the values detected in the other columns of samples of the plate.
Two solutions are made up with different concentrations of phenylpropanoid, using the milk as solvent in a total volume of 50 ml. In this specific example, which obviously should be understood to be non-limiting of the invention, an extract of “Lippia Citriodora” was used, titrated at 93% verbascoside. […]
These solutions are left to act under moderate but constant stirring, for a total of […] at 25±5° C.
Samples are taken at 30±2 minutes, 1±0.1 hour and 3±0.1 hours.
An aliquot of milk is taken from each sampling, comprised between 200 ul and 500 ul, and preferably 300 ul, to which a buffer is added, Na3C6H5O7 0.2M at pH 7.0±0.5, until a final volume is reached comprised between 1000 ul and 1500 ul, and preferably a final volume of 1500 ul.
Then a murine antibody, directed against the alpha-Gal epitope, is added (in the present example this is an IgM clone called M86), at the preferable concentration of [1:50] w/v and the whole is incubated for 120±10 minutes at 37±2° C. under constant but moderate stirring.
At the end the samples are subjected to centrifugation at 10,000×g for 30±2 minutes at 4±2° C.
During incubation with the M86 antibody, a plate with 96 wells is prepared with 100 ul per well of alpha-Gal/HSA (Human Serum Albumin) at 5 ug/ml in a PBS buffer (pH 7.0±0.5).
The plate thus prepared is incubated for 60±10 minutes at a temperature comprised between 30° C.-40° C., although it is preferable to stabilize everything at 37° C.±2.0° C.
Then 3 washes are carried out with 300 ul per well of PBS (physiological pH) at ambient temperature.
The first wash is left to act for 5 minutes, the two subsequent washes for 3 minutes each.
The blocking is done with 300 ul per well of 2±0.5% of serum albumin in PBS, followed by covering the plate with protective film and incubation for 60±10 minutes at ambient temperature, in darkness.
Subsequently 3 washes are performed as above. […]

Row | SMILES | antigens inactivated (alpha-Gal epitope [1]; after 30 minutes) [%] | antigens inactivated (alpha-Gal epitope [1]; after 1 hour) [%] | antigens inactivated (alpha-Gal epitope [1]; after 3 hours of incubation) [%] | antigens inactivated (alpha-Gal epitope [2]; after 30 minutes) [%] | antigens inactivated (alpha-Gal epitope [2]; after 1 hour) [%] | antigens inactivated (alpha-Gal epitope [2]; after 3 hours of incubation) [%]
1 | O=C(O)/C=C/c1ccc(O)c(O)c1 [caffeic acid] | 61.8±2.8 | 78.3±4.1 | 89.2±1.8 | 51.2±4.2 | 61.1±2.6 | 72.3±2.8
2 | O=C(OC[C@H]1O[C@@H](OC(=O)c2cc(O)c(O)c(OC(=O)c3cc(O)c(O)c(O)c3)c2)[C@H](OC(=O)c2cc(O)c(O)c(OC(=O)c3cc(O)c(O)c(O)c3)c2)[C@@H](OC(=O)c2cc(O)c(O)c(OC(=O)c3cc(O)c(O)c(O)c3)c2)[C@@H]1OC(=O)c1cc(O)c(O)c(OC(=O)c2cc(O)c(O)c(O)c2)c1)c1cc(O)c(O)c(OC(=O)c2cc(O)c(O)c(O)c2)c1 [tannic acid] |  |  |  | 67.7±7.1 | 71.8±2.2 | 80.6±1.8
